Assay [1] deals with NALM-6 human B-lineage acute lymphoblastic leukemia cells. Kind of assay: MTT cytotoxicity assay, NALM-6. It counts as cell-based. The settings on record: NALM-6 (leukemia, ALL), 24-36 hours, read-out: IC50 [MTT]. The protocol: (§1) The cytotoxicity assay of synthetic Phorboxazole A and various derivative compounds against human tumor cells was performed using the MTT (3-[4,5-dimethylthiazol-2-yl]-2,5-diphenyl tetrazolium bromide) assay (Boehringer Mannheim Corp., Indianapolis, Ind.). Briefly, exponentially growing brain tumor cells were seeded into a 96-well plate at a density of 2.5×10^4 cells/well and incubated for 36 hours at 37° C. prior to drug exposure. On the day of treatment, culture medium was carefully aspirated from the wells and replaced with fresh medium containing the various phorboxazole A derivative compounds as well as the tyrosine kinase inhibitory isoflavone genistein (GEN) at concentrations ranging from 0.1 to 250 μM. Triplicate wells were used for each treatment.
(§2) Human glioblastoma cells U373 (brain cancer), human B-lineage acute lymphoblastic leukemia cells NALM-6, and human breast cancer cells BT-20 were obtained from American Type Culture Collection (Rockville, Md.) and maintained as a continuous cell line in Dulbecco's modified Eagles's medium supplemented with 10% fetal bovine serum and antibiotics.
(§3) The cells were incubated with the various compounds for 24-36 hours at 37° C. in a humidified 5% CO2 atmosphere. To each well, 10 μl of MTT (0.5 mg/ml final concentration) was added and the plates were incubated at 37° C. for 4 hours to allow MTT to form formazan crystals by reacting with metabolically active cells. The fonnazan crystals were solubilized overnight at 37° C. in a solution containing 10% SDS in 0.01 M HCl. The absorbance of each well was measured in a microplate reader (Labsystems) at 540 nm and a reference wavelength of 690 nm. To translate the OD540 values into the number of live cells in each well, the OD540 values were compared to those on standard OD540-versus-cell number curves generated for each cell line. The percent survival was calculated using the formula: [formula]
(§4) The IC50 values were calculated by non-linear regression analysis.

Assay [2] relates to BT-20 human breast cancer cells. Kind of assay: MTT cytotoxicity assay, BT-20. It counts as cell-based. The settings on record: BT-20 (breast cancer), 24-36 hours, read-out: IC50 [MTT]. The protocol: as §1, §2, §3, §4
(Tetrazolium assays rely on reduction of a dye to a coloured formazan, in cell work by metabolically active cells.)

The subject of assay [3] is U373 human glioblastoma cells. Put plainly: MTT cytotoxicity assay, U373. It counts as cell-based. As to conditions: U373 MG, U373 (brain tumor, glioblastoma), 24-36 hours, read-out: IC50 [MTT]. The procedure:
as §1, §2, §3, §4

In assay [4] the test system is NALM-6 B-lineage ALL cells. Put plainly: Clonogenic assay, NALM-6. It counts as cell-based, human. The settings on record: 7 days; for inhibition at 0.001 µM / inhibition at 0.01 µM / inhibition at 0.1 µM: Homo sapiens, 168 h, read-out: Inhibition of clonogenic growth. The protocol: (§5) The growth-inhibiting activity of the synthetic Phorboxazole A and the synthesized derivatives was tested in clonogenic assays. Cancer cells were treated with 1 nM, 10 nM, and 100 nM doses of synthetic Phorboxazole A or derivatives of phorboxazole A. Treated cells included U373 human glioblastoma cells, NALM-6, human B-lineage acute lymphoblastic leukemia cells, and BT-20 human breast cancer cells. The cancer cells were resuspended in clonogenic medium consisting of alpha-MEM supplemented with 0.9% methylcellulose, 30% fetal bovine serum, and 50 μM 2-mercaptoethanol. Cells were plated in duplicate Petri dishes at 100,000 cells/mL/dish and cultured in a humidified 5% CO2 incubator for 7 days. Cancer cell colonies were enumerated on a grid using an inverted phase microscope of high optical resolution. Results were expressed as % inhibition of clonogenic cells at a particular concentration of the test agent using the formula:
(§6) % Inhibition=(1−Mean # of colonies [Test]/Mean # of colonies [Control]×100.

The test system of assay [5] is BT-20 human breast cancer cells. Kind of assay: Clonogenic assay, BT-20. It counts as cell-based. The settings on record: 7 days; for inhibition at 0.001 µM / inhibition at 0.01 µM / inhibition at 0.1 µM: Homo sapiens, 168 h, read-out: Inhibition of clonogenic growth. The procedure:
as §5, §6

The test system of assay [6] is U373 human glioblastoma cells. Put plainly: Clonogenic assay, U373. It counts as cell-based. The settings on record: 7 days; for inhibition at 0.01 µM / inhibition at 0.1 µM: Homo sapiens, U373 MG, 168 h, read-out: Inhibition of clonogenic growth. The procedure: as §5, §6
The test system of assay [7] is human breast cancer cell line BT-20. Kind of assay: In situ detection of apoptosis (nick-end-labeling, confocal microscopy). It counts as cell-based. As to conditions: final concentration of 100 μM, 24 hours. The procedure:
The synthetic Phorboxazole A and the synthetic analogs were also assayed for apoptosis-inducing activity. Assay for apoptosis was performed by the in situ nick-end-labeling method using an ApopTag in situ detection kit (Oncor, Gaithersburg, Md.) according to the manufacturer's reconmmendations. Immunofluorescence was used to examine the morphologic features of human breast cancer cell line BT-20 (American Type Culture Collection Rockville, Md.) treated with the novel phorboxazole A derivatives of the present invention.
Cells were trypsinized from rapidly growing tissue culture flasks and seeded onto sterile 22 mm^2 coverslips in 6-well culture plates. Cells on coverslips were returned to the incubator for 24 hours prior to treatment. The phorboxazole A derivatives were added to the cells from a stock solution made in DMSO to a final concentration of 100 μM. Final DMSO concentration were kept at 0.1% in both test samples and controls. Cells were returned to a 37° C. incubation for 24 hours before further processing. At 24 hours, coverslips were fixed in −20° C. methanol for 15 minutes followed by a 15 minute incubation in phosphate buffered saline +0.1% Triton X-100 (PBS-Tx). Coverslips were then incubated with a monoclonal antibody against α-tubulin (Sigma Chemical Co., St. Louis, Mo.) at a dilution of 1:1000 for 40 minutes in a humidified chamber at 37° C. Coverslips were washed for 15 minutes in PBS-Tx followed by a 40 minute incubation with goat anti-mouse IgG antibody conjugated to FITC (Amersham Corp., Arlington Heights, Ill.). The coverslips were again rinsed in PBS-Tx and incubated with 5 μM TOTO-3 (Molecular Probes, Eugene, Oreg.) for 20 minutes to label the nuclear DNA. Coverslips were immediately inverted onto slides in Vectashield (Vector Labs, Burlingame) to prevent photobleaching, sealed with nail varnish and stored at 4° C.
Slides were examined using a Bio-Rad MRC-1024 Laser Scanning Confocal Microscope mounted on a Nikon Eclipse E800 upright microscope with high numerical aperture objectives. […]

The test system of another assay is leukemia NALM-6 cells. Put plainly: Mitochondrial transmembrane potential assay (DiIC1(5) staining). The settings on record: 2.5 nM, 5 nM or 10 nM, 72 hours. It counts as cell-based, human. The procedure: FIG. 2 are graphs showing the effect of synthetic phorboxazole A and phorboxazole A derivatives on the mitochondrial transmembrane potentials of leukemia NALM-6 cells.
Cells were incubated with 2.5 nM, 5 nM or 10 nM of phorboxazole A, 33-O-methyl-phorboxazole A or 45,46-dehydrobromo-phorboxazole A for 72 hours, stained with DiICl (5) to assess the mitochondrial membrane potential (Δψm) and then analyzed with a cell sorter equipped with a HeNe laser.

For assay [8], the system named is U373 glioblastoma spheroids. Put plainly: Cell migration from glioblastoma spheroids. It counts as cell-based, human. The settings on record: U373 spheroids on fibronectin-coated coverslips; 48 hours; varied concentrations. The protocol: U373 glioblastoma spheroids of 200 to 400 micrometers in diameter were treated with synthetic Phorboxazole A, 33-O-Methyl-phorboxazole A, and 45,46-dehydrobromo-phorboxazole A in 0.1% DMSO at varied concentrations. Cells were incubated with the inhibitor or with control DMSO in the absence of inhibitor compound for two hours, and then transferred to fibronectin-coated coverslips. The spheroids were then incubated in DMEM containing […] at 37° C. for 48 hours.
In addition, multi-cellular U373 glioblastoma spheroids of 200-400 μm diameter were incubated with 500 nM, 250 nM, 125 nM, 62.5 nM and […] phorboxazoleA, 29-phorboxamide A, 18-methyl phorboxylate and 31-methyl phorboxylate in 0.1% DMSO or 0.1% DMSO alone for 2 hours and transferred to fibronectin-coated coverslips. The spheroids were then incubated in MEM containing respective compounds and cultured for 48 hours at 37° C. At the end of incubation, the spheroids were fixed and stained with Hema-3 solutions. The distance of migrated cells from spheroids was measured using a mircoscope and micrometer.

Structures are written as SMILES.

Regarding `C#CC[C@H](/C=C/C(C)=C/[C@@H](O)[C@H]1C[C@@H](OC)C[C@@](O)(Cc2nc(/C=C(\C)[C@@H]3O[C@@H]4C/C=C/c5nc(co5)[C@H]5C[C@H](O)C[C@@H](C[C@H]6CC(=C)C[C@H](C/C=C\C(=O)O[C@@H]([C@H]4C)[C@H]3C)O6)O5)co2)O1)OC` [Compound 8, 45,46-Dehydrobromo-Phorboxazole A], the IC50 – broadly, the concentration needed to halve the response being measured – stood at 4.8 nM in assay [1], 12.6 nM in [2] and 27.4 nM in assay [3]. For the same compound, the “Mean Number Colonies/10^4 cells” value was found to be 2116 in assay [4] (1 nM); 293 in assay [4] (10 nM); 0 in [4] (100 nM); 1540 in assay [5] (1 nM); 1062 in assay [5] (10 nM); 0 in [5] (100 nM). Also, the “Mean Number Colonies/10^4 cells” value in assay [6] (10 nM) is reported as 586; in [6] (100 nM), 144. In addition, the inhibition at 0.001 µM in assay [4] (1 nM) and in [5] (1 nM) was 0% each time. Also, the inhibition (commonly the relative decrease from the control value, in per cent) at 0.01 µM in assay [4] (10 nM) is 85.7%; in assay [5] (10 nM), 30.3%; in [6] (10 nM), 10.7%. For the same compound, the inhibition at 0.1 µM is > 99.9% in assay [4] (100 nM), > 99.9% in assay [5] (100 nM) and 78.1% in assay [6] (100 nM). The Apoptosis-inducing activity entry in assay [7] is on record as “apoptotic activity”. Further, in the assay on leukemia NALM-6 cells, the “Depolarized mitochondria (mitochondrial membrane potential)” value is given as “progressive increase in depolarized mitochondria”. Further, in assay [8], the “Inhibition of cell migration from the spheroid” value is recorded as “significantly inhibited cell migration”.

Turning to `C=C1C[C@@H]2C[C@@H]3C[C@@H](O)C[C@@H](O3)c3coc(n3)/C=C/C[C@H]3O[C@@H](/C(C)=C/c4coc(C[C@]5(OC)C[C@H](OC)C[C@H]([C@H](O)/C=C(C)/C=C/[C@@H](C/C=C/Br)OC)O5)n4)[C@H](C)[C@@H](OC(=O)/C=C\C[C@@H](C1)O2)[C@H]3C` [Compound 9, 33-O-methyl-Phorboxazole A], the IC50 in assay [1] is 5.2 nM; in assay [2], 11.3 nM; in assay [3], 29.2 nM. The “Mean Number Colonies/10^4 cells” value in [4] (1 nM) turned out to be 1760; in [4] (10 nM), 422; in [4] (100 nM) it was 0; in assay [5] (1 nM) it was 1824; in [5] (10 nM) it was 1430; in assay [5] (100 nM) it was 0. Moreover, the “Mean Number Colonies/10^4 cells” value in assay [6] (10 nM) was 578; in [6] (100 nM), 0. The inhibition at 0.001 µM in assay [4] (1 nM) was determined as 14%; in assay [5] (1 nM), 0%. Moreover, the inhibition at 0.01 µM in [4] (10 nM) amounted to 79.4%; in [5] (10 nM) it was 6.2%; in [6] (10 nM), 11.9%. The inhibition at 0.1 µM was > 99.9% in [4] (100 nM), > 99.9% in [5] (100 nM) and > 99.8% in assay [6] (100 nM). In addition, the Apoptosis-inducing activity entry in [7] is “apoptotic activity”. For the same compound, the “Depolarized mitochondria (mitochondrial membrane potential)” value in the assay with leukemia NALM-6 cells is reported as “progressive increase in depolarized mitochondria”. Also, the “Inhibition of cell migration from the spheroid” value in assay [8] is “significantly inhibited cell migration”.

The record behind these values is patent US6797721B2, “Phorboxazole derivatives for treating cancer” (Parker Hughes Institute, priority 1999, dated 2004).
